One sequence from patent publication US7241581B2, “Methods of identifying compounds that modulate IL-4 receptor-mediated IgE synthesis utilizing a c-MYC protein” (Rigel Pharmaceuticals, Inc., priority 2002, dated 2007) can be followed below.

Test [1] concerns endogenous germline ε promoter. The experiment in a line: TAQMAN assay of endogenous germline ε promoter transcription in A5T4 cells. Type of test: cell-based, human. Conditions: relative expression units of +IL-4/+Dox to +IL-4/-Dox A5T4 cells; IL-4 60 U/ml, 3 days; average of 3 values. On the procedure: The ability of peptide BR10A1 wt to inhibit transcription of an endogenous germline ε promoter was confirmed using a TAQMAN® assay (Roche Molecular, Alameda, Calif.). Briefly, A5T4 cells were infected with retrovirus capable of expressing peptide BR10A1 wt (prepared as described above). The cells were sorted for BFP^+ to select for infected cells. Infected cells were divided into two populations. One population was exposed to Dox (10 ng/ml). Both populations were stimulated with IL-4 (60 U/ml). After 3 days, the cells were pelleted and the pellets assayed for ε promoter transcription using a TAQMAN assay performed as described in Applied Biosystems Protocol 4310299 (available at http:www.appliedbiosystems.com). The primers and probe, which are specific for the transcription product driven by the A5T4 endogenous ε promoter, were as follows (the probe was labeled at the 5′-end with Fam and at the 3′-end with Tamra): […]
For orientation: Quantitative PCR measures a nucleic acid by following its amplification.

Test [2] addresses T1, human c-Myc protein (Homo sapiens, UniProt P01106).
T1 construct: expressed in transfected cells; prey cDNA library made from the A5T4 reporter line (human BJAB B-cells)
The experiment in a line: Yeast two hybrid (YTH) interaction assay, β-galactosidase. In kind it is binding. As for the experimental part: Potential binding partners for peptide BR10A1 wt were identified in a β-galactosidase yeast two-hybrid (YTH) assay using peptide BR10A1 wt as bait and a cDNA library constructed from the A5T4 reporter cell line as prey. Binding was assessed by β-galactosidase quantification using BetaFluor (Novagen) as a substrate. A negative interaction control (no cDNA fused downstream of the GAL4 activation domain sequence) was also run. A general outline of the YTH assay is illustrated in FIG. 5A. Following clustering, filtering to remove non-specific bait hits (e.g., GFP and BFP), singletons and clusters recognized by 10 or more cDNA baits (based upon historical YTH assays), and prioritization, 30 prey clones were identified as hits.
Potential targets identified in the YTH assay were reconfirmed as generally outlined in FIG. 6. The cDNA clones identified as hits in the YTH assay were purified and rescreened for interaction with the BR10A1 wt peptide in a YTH assay. The hit clones were also screened in a control assay for interaction with the BFP using a vector (pGBKT7) that contained only the BFP and not the BR10A1 peptide. At this stage, 25 putative target clones remained.
The interaction of BR10A1 wt peptide and its mutants with the clones identified as potential targets for the peptide BR10A1 wt was then quantified in a β-galactosidase YTH assay. The YTH assay was performed in the manner described above. A general outline of this YTH assay is illustrated in FIG. 5B. For each clone tested, an interaction profile was developed by comparing the β-galactosidase activity of each mutant to that of the wild type peptide as described above.
The interaction of selected IOF, ROF and LOF mutants with different polypeptides encoded by the putative target clones were quantified using the YTH assay described above. Based on the YTH assay, for each putative target, the mutants were categorized into the following four interaction categories: (1) reduction of interaction (ROI); (2) loss of interaction (LOI); (3) increase of interaction (IOI); and (4) interactionally neutral (N), by assessing the binding affinity ratio of the mutant peptide and the wild type peptide (β-gal activity of mutant/wild type) to the putative target. The selection criteria for categorizing the interactions is shown on FIG. 8.

T1 sequence (P01106 whole entry): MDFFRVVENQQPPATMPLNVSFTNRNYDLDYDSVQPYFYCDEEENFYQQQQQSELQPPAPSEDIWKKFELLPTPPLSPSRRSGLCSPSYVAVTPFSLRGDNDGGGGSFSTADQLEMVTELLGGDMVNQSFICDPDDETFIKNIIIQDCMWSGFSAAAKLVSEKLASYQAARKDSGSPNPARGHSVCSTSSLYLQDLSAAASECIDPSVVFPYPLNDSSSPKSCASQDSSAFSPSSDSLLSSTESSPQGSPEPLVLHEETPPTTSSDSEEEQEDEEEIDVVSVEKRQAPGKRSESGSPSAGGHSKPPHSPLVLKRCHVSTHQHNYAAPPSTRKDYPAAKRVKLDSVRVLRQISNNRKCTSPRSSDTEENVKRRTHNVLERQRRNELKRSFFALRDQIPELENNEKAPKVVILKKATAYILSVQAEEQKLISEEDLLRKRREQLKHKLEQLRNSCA

Regarding “MQRRESCITRSVEEGWGLFYLGP (peptide encoded by random oligo-BR10A1wt) [wild-type peptide from random library, expressed in cells as BFP-peptide fusion]”, in test [1], the “endogenous ε inhibition ratio” value is given as 2.18. The “binding to human c-Myc protein in yeast two hybrid interaction assay” value in test [2] is “found to bind”.
